Data taken from publication PMC4577092, “Identification of Small-Molecule Inhibitors of the HuR/RNA Interaction Using a Fluorescence Polarization Screening Assay Followed by NMR Validation” (PLoS ONE, 2015).

Target: T1, HuR (Homo sapiens, UniProt Q15717)
T1 construct: Full length (residue 1–326), RRM1-2 (residue 1–190); inferred from pET14b vector and metal chelation chromatography) (N); made in house; host or cells: E. coli BL21 Rosetta
Assay: Fluorescence polarization (FP) competition / dose-response assay of HuR/RNA interaction
Assay type: binding
Details: 10nM RNA and 50nM HuR, compounds serially diluted from 250uM
Procedure: Fluorescence polarization measurements were performed in the 384-well plate format on a Biotek Synergy2 plate reader using 480/20nm excitation and 520/20nm emission filters. The NCI diversity set V library containing 1597 compounds was screened in this study. All samples were dissolved in phosphate buffer (50mM Napi, and 100mM NaCl, 5mM TCEP at pH 7.0). The assay mixture contained 50nM HuR and 10nM RNA to yield FP values approximately 80% of the maximum value observed for fully bound RNA. NCI diversity set V library in 96-well format (10mM stock in DMSO) was transferred to 384-well plate, and then diluted into 50uM in phosphate buffer. 5ul of 50uM compound stock was added to 20 ul assay mixture to yield 10uM final compound concentration.
We first characterized the binding of the full-length HuR with 11-mer polyribonucleotide derived from the 3’ UTR of the mRNA of the C-fos oncogene (Fig 1A). The binding curves were obtained by keeping the 5’FAM-RNA at 10 nM and adding increasing amounts of HuR. The apparent dissociation constant for the HuR/RNA binding was estimated to be approximately 20 nM (Fig 1A) using the simplified equation as described. To evaluate the expected effect of the inhibitors on the FP readout of the essay, we measured displacement of the fluorescently labeled RNA by the unlabeled RNA (Fig 1B). In displacement assay, the 10nM of 5’FAM-RNA concentration was mixed with 50nM at which fluorescence polarization value was approximately 80% of the maximal value. Fluorescence polarization was measured as a function of the unlabeled RNA concentration. IC50 was obtained (~40nM) by fitting to the equation specified in the figure legend (Fig 1B)
Supplementary file pone.0138780.s002.tif: S2 Fig Dose responses of hits on confirmed hits from primary screening. Compounds at 250uM in final concentration in the assay volume of 25uL were added to the mixture of 10nM RNA and 50nM HuR in the first well in 384 format plate followed by a serial dilution into next well where the concentration of RNA and HuR was kept constant. (TIF) Click here for additional data file.
Supplementary file pone.0138780.s010.doc: S1 Table IC50 for confirmed hits from primary HTS screening. IC50s were obtained by fitting to the equation of ΔP = ΔPmax/(1+10^((Logx0-X)*p)). (DOC) Click here for additional data file.

T1 sequence (Q15717 whole entry): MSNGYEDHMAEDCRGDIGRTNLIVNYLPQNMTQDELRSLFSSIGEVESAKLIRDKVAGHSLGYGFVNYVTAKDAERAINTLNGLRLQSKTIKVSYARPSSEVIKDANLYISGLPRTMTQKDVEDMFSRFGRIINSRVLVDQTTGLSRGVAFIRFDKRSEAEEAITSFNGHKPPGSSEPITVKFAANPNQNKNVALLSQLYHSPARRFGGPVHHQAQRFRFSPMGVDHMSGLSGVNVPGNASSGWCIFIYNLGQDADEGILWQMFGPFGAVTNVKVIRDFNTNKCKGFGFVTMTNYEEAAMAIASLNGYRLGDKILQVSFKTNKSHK

| Molecule | IC50 [µM] |
| --- | --- |
| O=C(O)c1cc(N2C(=O)C=CC2=O)cc(N2C(=O)C=CC2=O)c1 [C3] | 26.9 |
| CSc1nc(N)c(N=Nc2ccc([As](=O)(O)O)cc2)c(=O)[nH]1 [C6] | 2.7 |
| COC(=O)CC1OCC=C2CN3CCC45C6=CC(=O)C(=O)C([N+](=O)[O-])=C6NC4C1C2CC35 (stereo not drawn) [C9] | 69.6 |
| COc1cccc2c1C(=O)c1c(O)c3c(c(O)c1C2=O)CC(O)(/C(C)=N/O)CC3OC1CC(N)C(O)C(C)O1 (stereo not drawn) [C10] | 21.7 |
| CO[C@@H]1[C@@H](OC(=O)c2ccc(C)[nH]2)[C@@H](O)[C@H](Oc2ccc3c(O)c(NC(=O)c4ccc(O)c(CC=C(C)C)c4)c(=O)oc3c2Cl)OC1(C)C [C11] | 41.9 |
| COCC(=O)OC1CCn2c1nc1c2C(=O)C(C)=C(NC(C)=O)C1=O (stereo not drawn) [C12] | 17.4 |

Next, values leading:

| IC50 [µM] | Molecule |
| --- | --- |
| 41 | Cc1ccc(Nc2ccc(N)cc2S(=O)(=O)O)cc1 [C2] |
| 97.4 | O=C(Nc1cccc([N+](=O)[O-])c1)c1ccc2ccccc2c1O [C4] |
| 16.7 | O=C(O)C1=NN(c2cc(Cl)c(S(=O)(=O)O)cc2Cl)C(=O)C1 [C5] |
| 4.6 | CCOC(=O)C(=O)Cc1cccnn1 [C7] |
| 44.4 | CC#CC#Cc1cccc(=O)o1 [C8] |

Target: T2, HuR full length (UniProt Q15717 1-326)
Assay: fluorescence polarization; 10 nM RNA; apparent Kd; FP: 50 mM Na phosphate, 100 mM NaCl, 5 mM TCEP, pH 7.0, 384-well plate; temperature not stated; NMR conditions not in material
Details: protein: recombinant; (pET14b, metal chelation); label: 5'-FAM; single strand

T2 sequence (Q15717 whole entry): as above

| Molecule | Kd [µM] |
| --- | --- |
| AUUUUUAUUUU (ssRNA) [5'-FAM c-Fos 11-mer ARE RNA] | ~0.02 |

Target: T2, HuR full length
Assay: competition (fluorescence polarization); displacement of 10 nM 5'-FAM RNA (N1) from 50 nM HuR; FP: 50 mM Na phosphate, 100 mM NaCl, 5 mM TCEP, pH 7.0, 384-well plate; temperature not stated; NMR conditions not in material
Details: protein: recombinant; (pET14b, metal chelation); single strand

| Molecule | IC50 [µM] |
| --- | --- |
| AUUUUUAUUUU (ssRNA) [unlabeled c-Fos 11-mer ARE RNA] | ~0.04 |

Target: T3, Full length HuR (Homo sapiens, UniProt Q15717)
T3 construct: Full length (residue 1–326), RRM1-2 (residue 1–190); inferred from pET14b vector and metal chelation chromatography) (N); made in house; host or cells: E. coli BL21 Rosetta
Assay: Sedimentation velocity analytical ultracentrifugation (AUC) of HuR dimer/oligomer
Assay type: biochemical
Details: 10uM HuR and 20uM compounds
Procedure: Sedimentation velocity analytical ultracentrifugation was performed on a Beckman XLA analytical ultracentrifuge using an AN50 Ti rotor with standard Epon 2-channel centerpieces. The samples were spun at 25000rpm for~12hrs at 20 C. 25 scans measuring absorbance at 280nm were collected. The data were analyzed using Ultrascan III software.
Supplementary file pone.0138780.s005.tif: S5 Fig Post-hit validation using analytical ultracentrifugation (AUC). Sedimentation velocity studies are informative of the overall shape of molecule. […] We tested 4 compounds from secondary screening. 30% and 50% fraction of boundary were in orange. […] (TIF) Click here for additional data file.

T3 sequence (Q15717 whole entry): as above

| Molecule | effect on formation of HuR dimer/oligomer (shift of boundary toward monomer) |
| --- | --- |
| Cc1ccc(Nc2ccc(N)cc2S(=O)(=O)O)cc1 [C2] | did not |
| CC#CC#Cc1cccc(=O)o1 [C8] | did not |
